In paper PMC8989696, “Characterization of furathiocarb metabolism in in-vitro human liver microsomes and recombinant cytochrome P450 enzymes” (Toxicology Reports, 2022):
Marks after values point to notes of the source that are not given here.

Key:
[1] = Correlation of furathiocarb metabolite formation with model CYP substrate activities in ten human hepatic microsomes; type: in vitro ADME; conditions: 20 min, n = 10; for Linear correlation coefficient, Carbofuran metabolic pathway: 50 μM furathiocarb
Protocol: A set of ten livers was used to assess the metabolism of furathiocarb in the individual livers as well as to correlate the activities with a model CYP substrate. (Detailed information is available as Supplementary materials).
(§1) The kinetic parameters Vmax and Km were calculated by nonlinear regression. Bivariate linear Pearson’s correlation coefﬁcients (r2) were calculated between metabolite formations and model activities in the livers. GraphPad Prism 9 Software (Inc., San Diego, CA) Prism 9.0.0 (San Diego, CA) was used for kinetic parameters and correlation coefﬁcients analysis. The IC50 values were determined by linear regression analysis using OriginPro 2020 (MicroCal Software, Inc., Northampton, MA.
Metabolites of bupropion, amodiaquine, tolbutamide, omeprazole, dextromethorphan, chlorzoxazone, and midazolam were analyzed by a Shimadzu VP series high-performance liquid chromatograph with an autoinjector (Shimadzu, Kyoto, Japan). The analytical column was a Waters Symmetry C18 (3.9 mm x 150 mm, particle size of 5 µm) together with a Lichospher 100 RP-18 4.0 mm x 4.0 mm precolumn (Merck, Darmstadt, Germany). Chromatographic methods were isocratic, except in the case of omeprazole when a linear gradient elution from 15 to 35% A in 8 min was used. Mobile phases were pumped at a flow rate of 1.0 ml/min. The injection volume used was 20 µl. The concentrations of metabolites were calculated from peak height ratios of the UV chromatograms on the basis of standard calibration curves of authentic metabolites. Metabolites of ethoxyresorufin, ethoxycoumarin, coumarin, and pentoxyresorufin were analyzed fluorometrically. […] Fresh […] dilutions from stock solution of DMSO were used for each assay. The final amount of DMSO was 1% in incubation mixtures. For chlorzoxazone 6-hydroxylation the solvent was evaporated because of the potent inhibition effect of DMSO on CYP2E1, and the residue was diluted with 10 µl of lipid solution. Lipid solution was prepared by adding 8 µl of dimethyldioctadecylammonium-bromide in chloroform (100 mg/ml) to 200 µl L-α-phosphatidylethanolamine dioleyl [C18:1 (cis)-9] in chloroform. This mixture was evaporated with a stream of nitrogen flow, 2 ml of water was added, and the final mixture was sonicated (Branson Sonifier 250 GWB) on an ice bath for 10 min by using 50% power.
Cytochrome P450 enzyme activity characterizations as well as incubations with individual human hepatic microsomes were performed at the same time. A bank of 10 livers was used to assess the metabolism of furathiocarb in individual livers as well as to correlate the activities with model P450 substrate activities. A correlation was performed between the formation of furathiocarb metabolites and each CYP activity across the human liver set. For all data points the mean of duplicate incubations were used. […] Bivariate linear Pearson’s correlation coefficients (r) were calculated between metabolite formations and model activities in livers. […]

CYP2C9 = target: T1, CYP2C9 (Homo sapiens, UniProt P11712); experiment: N-in-one CYP inhibition assay, pooled human hepatic microsomes, CYP2C9 (OH-TOL); type: in vitro ADME
T1 construct: from tissue; host or cells: pooled human liver microsomes (n = 10 donors)
Protocol: (§2) N-in-one (“cocktail”) assay for measuring major CYP activities simultaneously, [55], [56] was employed to investigate human CYP-furathiocarb inhibitory interactions in pooled human hepatic microsomes. Furathiocarb (ﬁnal concentrations in the incubation mixture were 1, 5, 25, 50, and 100 µM) was added to the incubation mixture. The N-in-one was used earlier for the study of pesticide interactions and the details of the incubations with furathiocarb are described in Supplementary materials.
as §1
(§3) N-in-one assay was performed to investigate human CYP-furathiocarb inhibitory interactions. Furathiocarb (ﬁnal concentrations in the incubation mixture were 1, 5, 25, 50, and 100 µM) was added to the incubation mixture.
(§4) The N-in-one assay, analytical method and authentic standards have been described previously (Abass and Pelkonen 2013; Tolonen et al. 2007; Turpeinen et al. 2005). […]

[2] = tested on: human CYP activities other than CYP1A2, CYP2B6, CYP2C9, CYP2C19; experiment: N-in-one CYP inhibition assay, pooled human hepatic microsomes, other CYP activities; type: in vitro ADME; conditions: pooled human liver microsomes (n = 10), pH 7.4, furathiocarb 1–100 µM, read-out: Other IC50 values (remaining CYP activities of N-in-one assay)
Protocol: as §2, §1, §3, §4

[3] = 7 cases of acute fatalities, cited from earlier work

T1 sequence (P11712 whole entry): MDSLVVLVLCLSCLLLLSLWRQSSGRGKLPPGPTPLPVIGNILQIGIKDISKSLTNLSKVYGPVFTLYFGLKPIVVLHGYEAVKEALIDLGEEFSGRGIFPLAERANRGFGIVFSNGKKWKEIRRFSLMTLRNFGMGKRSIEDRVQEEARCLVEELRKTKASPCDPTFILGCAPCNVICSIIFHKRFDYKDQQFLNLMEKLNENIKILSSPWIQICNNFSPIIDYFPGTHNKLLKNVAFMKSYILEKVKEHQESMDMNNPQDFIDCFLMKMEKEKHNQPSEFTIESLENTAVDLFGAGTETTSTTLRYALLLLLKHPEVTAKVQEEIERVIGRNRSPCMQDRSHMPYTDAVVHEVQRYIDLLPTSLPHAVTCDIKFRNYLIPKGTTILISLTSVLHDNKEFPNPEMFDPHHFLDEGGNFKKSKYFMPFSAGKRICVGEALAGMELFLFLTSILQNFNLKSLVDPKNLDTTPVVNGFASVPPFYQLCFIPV

CCCCOC(=O)N(C)SN(C)C(=O)Oc1cccc2c1OC(C)(C)C2 [furathiocarb, Furathiocarb]
Linear correlation coefficient, Carbofuran metabolic pathway ([1]; vs CYP1A1/2 7-Ethoxyresorufin-O-deethylation (EROD)): 0.2493
Linear correlation coefficient, Carbofuran metabolic pathway ([1]; vs CYP2A6 Coumarin-7-hydroxylation (OH-COU)): 0.2303
Linear correlation coefficient, -OH/SO4 furathiocarb Metabolite B ([1]; vs CYP2A6 Coumarin-7-hydroxylation (OH-COU), 100 μM furathiocarb): 0.1259
Linear correlation coefficient, Carbofuran metabolic pathway ([1]; vs CYP2B6 Bupropion hydroxylation (OH-BUP)): 0.0023
Linear correlation coefficient, Carbofuran metabolic pathway ([1]; vs CYP2C8 Amodiaquine-desethylation (deEt-AMO)): 0.1814
Linear correlation coefficient, Carbofuran metabolic pathway ([1]; vs CYP2C9 Tolbutamide hydroxylation (OH-TOL)): 0.1126
Linear correlation coefficient, Carbofuran metabolic pathway ([1]; vs CYP2C19 Omeprazole-5-hydroxylation (5-OH-OME), P < 0.0001): 0.9074 **
Linear correlation coefficient, -OH/SO4 furathiocarb Metabolite A ([1]; vs CYP2C19 Omeprazole-5-hydroxylation (5-OH-OME), 100 μM furathiocarb): 0.4683
Linear correlation coefficient, Carbofuran metabolic pathway ([1]; vs CYP2D6 Dextromethorphan-O-desmethylation (O-dem-DEX)): 0.0059
Linear correlation coefficient, Carbofuran metabolic pathway ([1]; vs CYP2E1 Chlorzoxazone-6-hydroxylation (OH-CLZ)): 0.1101
Linear correlation coefficient, Carbofuran metabolic pathway ([1]; vs CYP3A4 Midazolam-1'-hydroxylation (1-OH-MDZ), P = 0.0001): 0.8513 *
Linear correlation coefficient, -OH/SO4 furathiocarb Metabolite B ([1]; vs CYP3A4 Midazolam-1'-hydroxylation (1-OH-MDZ), 100 μM furathiocarb): 0.3282
Linear correlation coefficient, Carbofuran metabolic pathway ([1]; vs CYP3A4 Omeprazole sulfoxidation (SO2-OME), P < 0.0001): 0.9632 **
Linear correlation coefficient, -OH/SO4 furathiocarb Metabolite B ([1]; vs CYP3A4 Omeprazole sulfoxidation (SO2-OME), 100 μM furathiocarb): 0.2793
IC50 (CYP2C9): 16.5 to 18.5 µM
IC50 at 20 min [2]: > 100 µM
Concentrations in the blood (average) ([3]; n = 7): 3600 ng/mL
Concentrations in the blood (range) [3]: 100 to 21600 ng/mL
